Experimental data published in article PMC4109950, “Novel Small Molecule XPO1/CRM1 Inhibitors Induce Nuclear Accumulation of TP53, Phosphorylated MAPK and Apoptosis in Human Melanoma Cells” (PLoS ONE, 2014).

Key:
[1] = test system: human A375 melanoma xenografts; assay: Subcutaneous melanoma xenograft tumor growth; type: in vivo, NOD/SCID mice; details: oral gavage three times weekly, KPT-276 75 mg/kg or KPT-330 15 mg/kg, p<0.0001 for both
Method: (§1) All animal studies were conducted under a protocol (2009A0178-R1) approved by The Ohio State University Institutional Animal Care and Use Committee (IACUC). A subcutaneous (s.c.) tumor model of melanoma was employed to determine whether treatment with the orally bioavailable SINE compounds, KPT-276 (preclinical tool compound) or KPT-330 (currently in Phase 1 studies in humans with advanced cancers), would be effective in decreasing tumor growth in vivo. Female NOD/SCID mice (n = 6 mice/group; 6-8 weeks of age; Jackson Laboratory, Bar Harbor, ME) were injected subcutaneously (s.c.) in the right flank with 2×10^6 human A375 or CHL-1 melanoma cells (Day 0). Once tumors were palpable, mice were randomized to one of […] treatment groups: [a] diluent, [b] KPT-276 (75 mg/kg), or [c] KPT-330 (15 mg/kg). All treatments were administered via oral gavage in a volume of 200 µL three times weekly (Monday, Wednesday, Friday). Bi-dimensional tumor measurements were obtained three times weekly using microcalipers. Mice were euthanized and tumors were collected from all animals once diluent-treated tumors reached a volume of 1500 mm^3. For histology studies, a subset of animals (n = 2–3/group) were treated with diluents, KPT-276, or KPT-330 for one week, after which tumors were collected to avoid necrosis. The weights of all animals receiving diluent, KPT-276 or KPT-330 were monitored for dosing and to assess toxicity throughout the study.
(§2) The 4-parameter logistic or Hill model was the assumed dose-response relationship for the in vitro inhibition and cell viability experiments. Nonlinear least squares regression was used to estimate the model parameters and generate 95% confidence intervals for the IC50 estimates. For in vivo experiments, tumor volumes were first log-transformed to meet test assumptions of normality and homoscedasticity. Changes in tumor volumes were analyzed using a two-sample t-test to evaluate the difference from first day of treatment to the last for A375 xenografts (day 17), and from day 1 to day 10 for CHL-1 xenografts as day 10 marks the first mouse sacrificed when 1500 mm^3 tumor volume was reached. ANOVA was used to compare the expression of XPO1 staining among samples from the melanoma tissue core array. The Wilcoxon rank-sum test was used to analyze data comparing growth inhibition and apoptosis of the five metastatic melanoma cell lines to the three melanocyte cell lines.

[2] = test system: human CHL-1 melanoma xenografts; assay: Subcutaneous melanoma xenograft tumor growth; type: in vivo, NOD/SCID mice; details: CHL-1 xenograft, oral gavage three times weekly, KPT-276 75 mg/kg (p = 0.0087) or KPT-330 15 mg/kg (p = 0.0002)
Method: as §1, §2

CHL-1 xenografts = assay: Immunohistochemical staining of xenografts; type: in vivo, NOD/SCID mice; details: treated one week
Method: as §1
(§3) For analysis of XPO1 expression in human samples, an unstained (5 µm) slide of a commercially available tissue microarray (1 mm cores) containing 56 cases of primary melanoma, 20 cases of metastatic melanoma, and 24 cases diagnosed as nevus (US Biomax, Inc., Catalog #ME1004a) was subjected to immunohistochemical analysis using an antibody targeting XPO1 (Santa Cruz H-300, sc-5595, lot # D0110) according to manufacturer's recommendations (1∶50). For mouse studies, tumor xenografts were fixed in formalin, embedded in paraffin, a sectioned at 4 µm with two sections per slide. […] All samples were analyzed in a blinded fashion by an experienced pathologist (Dr. Krista La Perle). Automatic quantification of immunoreactivity in viable portions of xenograft tissue samples and tissue cores segmented with the TMA Lab (Aperio Technologies, Vista, CA) was performed on whole slide images scanned at 40× magnification (ScanScope XT, Aperio Technologies) using the Positive Pixel Count Algorithm in the ImageScope software, as well as the Color Deconvolution and Cytoplasmic algorithms available in the Image Analysis Toolbox (Aperio Technologies).

A375 xenografts = assay: Immunohistochemical staining of xenografts; type: in vivo, NOD/SCID mice; details: treated one week
Method: as §1, §3

A375 [3] = assay: Cellular growth assay (MTS), 72 h; type: cell-based, human; details: Homo sapiens, A-375, 72 h, A375, 72 hr treatment, read-out: Growth Inhibition IC50
Method: as §2, with “Cells were seeded in 96-well plates (2×10^4) in triplicate and allowed to adhere overnight. Fresh media containing KPT-185, KPT-185-trans, KPT-276, or KPT-330 was added to each well at various concentrations (range = 40–10240 nM) and cells were incubated at 37°C/5% CO2 for 72 hours. Cells treated with DMSO (diluent) and untreated cells served as controls. At this time, the percentage of cell growth was evaluated using the MTS assay (CellTiter 96 AQueous Non-Radioactive Cell Proliferation Assay, Promega) and quantified by determining the optical density at 595 nm using a Bio-Rad iMark™ microplate reader. The 4-parameter” for “The 4-parameter”

CHL-1 [4] = assay: Cellular growth assay (MTS), 72 h; type: cell-based, human
Method: as §2, with “Cells were seeded in 96-well plates (2×10^4) in triplicate and allowed to adhere overnight. Fresh media containing KPT-185, KPT-185-trans, KPT-276, or KPT-330 was added to each well at various concentrations (range = 40–10240 nM) and cells were incubated at 37°C/5% CO2 for 72 hours. Cells treated with DMSO (diluent) and untreated cells served as controls. At this time, the percentage of cell growth was evaluated using the MTS assay (CellTiter 96 AQueous Non-Radioactive Cell Proliferation Assay, Promega) and quantified by determining the optical density at 595 nm using a Bio-Rad iMark™ microplate reader. The 4-parameter” for “The 4-parameter”

A375 [5] = assay: Apoptosis via Annexin V/PI staining, flow cytometry; type: cell-based; details: Homo sapiens, A-375, A375, 72 hr treatment
Method: as §2, with “Phosphatidyl serine exposure was assessed in tumor cells and melanocytes by flow cytometry using APC-Annexin V and propidium iodide (PI; BD Pharmingen, San Diego, CA) as previously described. Each analysis was performed utilizing at least 10,000 events. We considered the Annexin V positive cells (early apoptosis) and Annexin V/PI double positive cells (late apoptosis) cells as the apoptotic cell population. The 4-parameter” for “The 4-parameter”

CHL-1 [6] = assay: as above; type: cell-based; details: Homo sapiens, CHL-1, 72 hr treatment
Method: as §2, with “Phosphatidyl serine exposure was assessed in tumor cells and melanocytes by flow cytometry using APC-Annexin V and propidium iodide (PI; BD Pharmingen, San Diego, CA) as previously described. Each analysis was performed utilizing at least 10,000 events. We considered the Annexin V positive cells (early apoptosis) and Annexin V/PI double positive cells (late apoptosis) cells as the apoptotic cell population. The 4-parameter” for “The 4-parameter”

[7] = design: method as in personal communication, Karyopharm Therapeutics, Inc.; details: CD1 mice, oral, 10 mg/kg; ref personal communication, Karyopharm Therapeutics, Inc.; cited from earlier work
[8] = Body weight of tumor-bearing mice during oral treatment; type: in vivo, NOD/SCID mice; details: oral treatment three times weekly, KPT-276 75 mg/kg or KPT-330 15 mg/kg, n = 6
Method: as §1, with “For histology studies, a subset of animals (n = 2–3/group) were treated with diluents, KPT-276, or KPT-330 for one week, after which tumors were collected to avoid necrosis.” left out

[9] = test system: A375 and CHL-1 cell lines; assay: Immunoblot of TP53, CDKN1A after etoposide; type: cell-based, human; details: 20 µM etoposide, 24 hours
Method: Human melanoma cell lines were seeded in 6-well plates (2×10^5) and allowed to adhere overnight. After treatment for various time points, the cells were harvested then fractionated using NE-PER Nuclear and Cytoplasmic Extraction Reagents from Thermo Scientific following the manufacturer's protocol. Nuclear and cytoplasmic fractions were validated via immunoblot analysis using Lamin B and GAPDH antibodies.
Immunoblots were prepared as previously described and probed with antibodies specific for TP53, CDKN1A (p21), XPO1, HDM2 (MDM2), Lamin B (Santa Cruz Biotechnology, Santa Cruz, CA), pMAPK, PARP (Cell Signaling Technology), GAPDH or β-actin (Sigma). Following incubation with the appropriate horseradish peroxidase-conjugated secondary antibody, immune complexes were detected using the ECL Plus detection kit (Amersham Biosciences, Ayesbury, UK).
Supplementary file pone.0102983.s001.tif: Figure S1 Localization of TP53, CDKN1A, and pMAPK in melanoma cell lines with etoposide. A375 and CHL-1 cell lines were treated with 20 µM of etoposide and harvested after 24 hours of treatment. Lysates were evaluated via immunoblot analysis. Lamin B and GAPDH serve as loading controls for nuclear and cytoplasmic compartments respectively. The data shown are representative of 2 to 3 independent biological experiments. (TIF) Click here for additional data file.

SMILES	Tumor growth vs diluent [1]	Tumor growth vs diluent [2]	Ki67 staining (CHL-1 xenografts)	TP53 expression (IHC) (CHL-1 xenografts; high basal expression)	Ki67 staining (A375 xenografts)	Levels of nuclear TP53 and pMAPK (IHC) (A375 xenografts; n = 3 vs 2)	IC50 (A375 [3]) [nM]	IC57 value (cytostatic effect) (CHL-1 [4]; CHL-1, 72 hours) [µM]	IC50 (A375 [5]) [nM]	IC50 (CHL-1 [6]) [nM]	Bioavailability [7] [%]	Level at Tmax [7]	Tmax [7] [min]	Body weights of mice during treatment [8]	IC50 (CHL-1 [4]; Homo sapiens, CHL-1, 72 hr treatment, read-out: Growth Inhibition IC50) [nM]	TP53 upregulation and downstream activation of CDKN1A [9]
O=C(/C=C\n1cnc(-c2cc(C(F)(F)F)cc(C(F)(F)F)c2)n1)N1CC(F)(F)C1 [KPT-276]	significantly inhibited growth	significantly inhibited growth	No significant changes	did not change	No significant changes	trend towards increased levels	321	3.8794	233	6130	> 90	roughly 2.5 micromolar	60	remained constant	–	–
O=C(/C=C\n1cnc(-c2cc(C(F)(F)F)cc(C(F)(F)F)c2)n1)NNc1cnccn1 [KPT-330]	significantly inhibited	significantly inhibited	–	–	–	–	120	–	112	7690	~60	roughly 2.5 micromolar	30	remained constant	7530	–
COc1cc([C@@H]2c3cc4c(cc3[C@@H](O[C@@H]3O[C@@H]5CO[C@@H](C)O[C@H]5[C@H](O)[C@H]3O)[C@H]3COC(=O)[C@H]23)OCO4)cc(OC)c1O [etoposide, Etoposide]	–	–	–	–	–	–	–	–	–	–	–	–	–	–	–	induced TP53 upregulation
